Measurements reported in publication PMC10082216 (Nature Communications, 2023).
Where two headings read alike, the source gives them in different places.

Assay: TD-6450 phase I clinical study (SAD/MAD): pharmacokinetics
Format: in vivo, human
Conditions: human
Procedure: Primary and secondary outcomes were pre-defined as follows: Safety and tolerability as a primary outcome, pharmacokinetics as a secondary outcome. Safety and tolerability were evaluated using standard measures, including adverse event (AE) monitoring, clinical laboratory tests (hematology, serum chemistry, coagulation, and urinalysis), vital signs, physical examinations, and 12-lead electrocardiograms (ECGs). […]
This study was conducted in two parts, Part A (SAD) and Part B (MAD). For the Part A, the age of enrolled subjects ranged from 20 to 60 years, with a mean age range of 32.1 to 46.2 years. Most subjects were male (73 total subjects) and most were white (55 subjects) or black (22 subjects). For Part B of the study, ages ranged from 23 to 60 years with a similar mean age across treatment groups. Most subjects were male (25 total subjects) and all were either white (18 subjects) or black (12 subjects). For each part of the study, the mean body mass index (BMI) and creatinine clearance were similar across treatment groups. […] Part A: Healthy subjects were sequentially enrolled and randomly assigned to each dose cohort (up to 10 dose-ascending cohorts were planned, including a fed arm in the food effect cohort) to receive either a single dose of TD-6450 or placebo. For each dose cohort, 8 subjects were randomized in a 3:1 ratio (6 subjects received TD-6450 and 2 subjects received placebo). The starting dose of TD-6450 was 0.5 mg with a planned maximum dose of 1000 mg. Upon review of the 500-mg cohort PK data, the decision was made to not escalate to the 1000-mg cohort because of exposure saturation at ≥ 500 mg. The following doses were administered: 0.5 mg, 1.5 mg, 5 mg, 15 mg, 30 mg, 60 mg, 120 mg, 240 mg, and 500 mg. Part B: Healthy subjects were sequentially enrolled in 3 ascending dose cohorts (TD-6450 60 mg, 120 mg, and 240 mg) and randomly assigned to receive either TD-6450 or placebo as once daily doses for 14 days. For each dose cohort, 10 subjects were randomized in a 4:1 ratio (8 subjects received TD-6450 and 2 subjects received placebo). Blinded safety, tolerability, and available PK data after each dose cohort were reviewed by the Safety Data Review Committee (SDRC) before escalation to the next dosing cohort for both part A and B. Subjects of the clinical study were randomly assigned to each cohort. Randomizations codes were assigned to the subjects. All study subjects, study investigators, and the sponsor’s staff involved in the conduct of the study were blinded to treatment assignment. The only personnel who had access to the randomization code before database lock were: The pharmacist or pharmacy staff member who prepared drug or placebo capsules for administration to the subject according to the randomization code and the bioanalytical contract laboratory that analyzed the PK samples (plasma and urine).

CNC(=O)N1C[C@@H](C)N(c2ccc(C(=O)Nc3ccc(-c4ccc(-c5c[nH]c([C@@H]6CCCN6C(=O)[C@@H](NC(=O)OC)C(C)C)n5)cc4)c(OC(F)(F)F)c3)cn2)C[C@@H]1C [TD-6450]
concentration at 144 h (female, plasma, oral, 15 mg, Female subjects, SAD arm NCT02022306, Dose 15.00, 144 Hours, read-out: Concentration): 4 ng/mL | concentration at 168 h (female, plasma, oral, 15 mg, Female subjects, SAD arm NCT02022306, Dose 15.00, 168 Hours, read-out: Concentration): 3.58 ng/mL | concentration at 3 h (female, plasma, oral, 30 mg, Female subjects, SAD arm NCT02022306, Dose 30.00, 3 Hours, read-out: Concentration): 24.8 ng/mL | concentration at 4 h (female, plasma, oral, 30 mg, Female subjects, SAD arm NCT02022306, Dose 30.00, 4 Hours, read-out: Concentration): 40.6 ng/mL | concentration at 6 h (female, plasma, oral, 30 mg, Female subjects, SAD arm NCT02022306, Dose 30.00, 6 Hours, read-out: Concentration): 70.6 ng/mL | concentration at 8 h (female, plasma, oral, 30 mg, Female subjects, SAD arm NCT02022306, Dose 30.00, 8 Hours, read-out: Concentration): 69.5 ng/mL | concentration at 12 h (female, plasma, oral, 30 mg, Female subjects, SAD arm NCT02022306, Dose 30.00, 12 Hours, read-out: Concentration): 45.3 ng/mL | concentration at 15 min (female, plasma, oral, 30 mg, Female subjects, SAD arm NCT02022306, Dose 30.00, 15 Minutes, read-out: Concentration): 0 ng/mL | concentration at 24 h (female, plasma, oral, 30 mg, Female subjects, SAD arm NCT02022306, Dose 30.00, 24 Hours, read-out: Concentration): 34.1 ng/mL | concentration at 48 h (female, plasma, oral, 30 mg, Female subjects, SAD arm NCT02022306, Dose 30.00, 48 Hours, read-out: Concentration): 22.3 ng/mL | concentration at 72 h (female, plasma, oral, 30 mg, Female subjects, SAD arm NCT02022306, Dose 30.00, 72 Hours, read-out: Concentration): 16.1 ng/mL | concentration at 96 h (female, plasma, oral, 30 mg, Female subjects, SAD arm NCT02022306, Dose 30.00, 96 Hours, read-out: Concentration): 10.8 ng/mL | concentration at 120 h (female, plasma, oral, 30 mg, Female subjects, SAD arm NCT02022306, Dose 30.00, 120 Hours, read-out: Concentration): 9.27 ng/mL | concentration at 144 h (female, plasma, oral, 30 mg, Female subjects, SAD arm NCT02022306, Dose 30.00, 144 Hours, read-out: Concentration): 6.93 ng/mL | concentration at 168 h (female, plasma, oral, 30 mg, Female subjects, SAD arm NCT02022306, Dose 30.00, 168 Hours, read-out: Concentration): 5.12 ng/mL | concentration at 1 h (female, plasma, oral, 60 mg, Female subjects, SAD arm NCT02022306, Dose 60.00, 1 Hour, read-out: Concentration): 7.46 ng/mL | concentration at 2 h (female, plasma, oral, 60 mg, Female subjects, SAD arm NCT02022306, Dose 60.00, 2 Hours, read-out: Concentration): 114 ng/mL | concentration at 3 h (female, plasma, oral, 60 mg, Female subjects, SAD arm NCT02022306, Dose 60.00, 3 Hours, read-out: Concentration): 70.5 ng/mL | concentration at 4 h (female, plasma, oral, 60 mg, Female subjects, SAD arm NCT02022306, Dose 60.00, 4 Hours, read-out: Concentration): 94.5 ng/mL | concentration at 6 h (female, plasma, oral, 60 mg, Female subjects, SAD arm NCT02022306, Dose 60.00, 6 Hours, read-out: Concentration): 109 ng/mL | concentration at 8 h (female, plasma, oral, 60 mg, Female subjects, SAD arm NCT02022306, Dose 60.00, 8 Hours, read-out: Concentration): 87.4 ng/mL | concentration at 12 h (female, plasma, oral, 60 mg, Female subjects, SAD arm NCT02022306, Dose 60.00, 12 Hours, read-out: Concentration): 60.5 ng/mL | concentration at 15 min (female, plasma, oral, 60 mg, Female subjects, SAD arm NCT02022306, Dose 60.00, 15 Minutes, read-out: Concentration): 0 ng/mL | concentration at 24 h (female, plasma, oral, 60 mg, Female subjects, SAD arm NCT02022306, Dose 60.00, 24 Hours, read-out: Concentration): 38.9 ng/mL | concentration at 30 min (female, plasma, oral, 60 mg, Female subjects, SAD arm NCT02022306, Dose 60.00, 30 Minutes, read-out: Concentration): 0.74 ng/mL | concentration at 48 h (female, plasma, oral, 60 mg, Female subjects, SAD arm NCT02022306, Dose 60.00, 48 Hours, read-out: Concentration): 29.3 ng/mL | concentration at 72 h (female, plasma, oral, 60 mg, Female subjects, SAD arm NCT02022306, Dose 60.00, 72 Hours, read-out: Concentration): 22.4 ng/mL | concentration at 96 h (female, plasma, oral, 60 mg, Female subjects, SAD arm NCT02022306, Dose 60.00, 96 Hours, read-out: Concentration): 17.2 ng/mL | concentration at 120 h (female, plasma, oral, 60 mg, Female subjects, SAD arm NCT02022306, Dose 60.00, 120 Hours, read-out: Concentration): 12.8 ng/mL | concentration at 144 h (female, plasma, oral, 60 mg, Female subjects, SAD arm NCT02022306, Dose 60.00, 144 Hours, read-out: Concentration): 11.1 ng/mL | concentration at 168 h (female, plasma, oral, 60 mg, Female subjects, SAD arm NCT02022306, Dose 60.00, 168 Hours, read-out: Concentration): 8.61 ng/mL | concentration at 3 h (in vivo, 1.5 mg, Male subjects, SAD arm NCT02022306, Dose 1.50, 3 Hours, read-out: Concentration): 1.48 ng/mL | concentration at 4 h (in vivo, 1.5 mg, Male subjects, SAD arm NCT02022306, Dose 1.50, 4 Hours, read-out: Concentration): 1.92 ng/mL | concentration at 6 h (in vivo, 1.5 mg, Male subjects, SAD arm NCT02022306, Dose 1.50, 6 Hours, read-out: Concentration): 1.07 ng/mL | concentration at 120 h (in vivo, 5 mg, Female subjects, SAD arm NCT02022306, Dose 5.00, 120 Hours, read-out: Concentration): 1.07 ng/mL | concentration at 48 h (in vivo, 5 mg, Male subjects, SAD arm NCT02022306, Dose 5.00, 48 Hours, read-out: Concentration): 1.81 ng/mL | concentration at 120 h (in vivo, 5 mg, Male subjects, SAD arm NCT02022306, Dose 5.00, 120 Hours, read-out: Concentration): 1.48 ng/mL | concentration at 168 h (in vivo, 15 mg, Male subjects, SAD arm NCT02022306, Dose 15.00, 168 Hours, read-out: Concentration): 2.59 ng/mL | concentration at 2 h (in vivo, 30 mg, Male subjects, SAD arm NCT02022306, Dose 30.00, 2 Hours, read-out: Concentration): 8.22 ng/mL | concentration at 30 min (in vivo, 120 mg, Male subjects, SAD arm NCT02022306, Dose 120.00, 30 Minutes, read-out: Concentration (ng/ml)): 1.01 ng/mL | concentration at 168 h (in vivo, 120 mg, Male subjects, SAD arm NCT02022306, Dose 120.00, 168 Hours, read-out: Concentration (ng/ml)): 10.2 ng/mL | concentration at 312 h (in vivo, 240 mg, Male subjects, SAD arm NCT02022306, Dose 240.00, 312 Hours, read-out: Concentration (ng/ml)): 4.88 ng/mL | TD-6450 concentration (in vivo, 48 h): 107.00 ng/mL | TD-6450 concentration (in vivo, 72 h): 273.00 ng/mL | TD-6450 concentration (in vivo, 96 h): 123.00 ng/mL | TD-6450 concentration (in vivo, 120 h): 102.00 ng/mL | TD-6450 concentration (in vivo, 144 h): 74.40 ng/mL | TD-6450 concentration (in vivo, 336 h): 6.38 ng/mL | Cmax (plasma, oral, 60 mg, SAD 60 mg, read-out: Cmax Mean ± SD): 123 ± 60.3 nM | half-life (plasma, oral, 60 mg, SAD 60 mg, read-out: t1/2 Mean ± SD (converted)): 61.4 ± 11.8 h | TD-6450 concentration (male, in vivo): 0.00 ng/mL | TD-6450 concentration (male, in vivo, 2 h): 179.00 ng/mL | TD-6450 concentration (male, in vivo, 3 h): 273.00 ng/mL | TD-6450 concentration (male, in vivo, 4 h): 303.00 ng/mL | TD-6450 concentration (male, in vivo, 6 h): 309.00 ng/mL | TD-6450 concentration (male, in vivo, 12 h): 216.00 ng/mL | TD-6450 concentration (male, in vivo, 24 h): 144.00 ng/mL | TD-6450 concentration (male, in vivo, 48 h): 90.40 ng/mL | TD-6450 concentration (male, in vivo, 72 h): 61.10 ng/mL | TD-6450 concentration (male, in vivo, 96 h): 40.80 ng/mL
